Experimental data from patent US11021486B2, “Coumarin-like cyclic compound as MEK inhibitor and use thereof” (CSTONE PHARMACEUTICALS, priority 2017, dated 2021).
Like-named read-outs stand apart in the source and are kept apart here.

What was measured:
[1] = Pharmacokinetics study of the compounds in C57BL/6 mice; assay type: in vivo; conditions: male, mouse, single intravenous and oral dose, plasma; for bioavailability: read-out: Bioavailability F; for AUC: read-out: Comcentration quadrature AUC; for half-life: read-out: Half life T1/2 (converted)
Protocol: Biological Test Method 4: Pharmacokinetics Study of the Compounds in C57BL/6 Mice Experimental Materials: C57BL/6 mice (male, 18-22 g, 7-9 weeks old, Shanghai Lingchang) Experimental Procedure: The pharmacokinetic characteristics of the compounds in rodents were determined after intravenous and oral administration of the compounds by standard protocols. In the experiment, candidate compounds were formulated into clear solutions, and intravenously and orally administrated to […] in a single dose. The menstruum for intravenous and oral administration was DMSO, PEG and water at a certain ratio or Solutol, HPMC and SLS aqueous solutions at a certain ratio. The whole blood samples within 24 hours were collected, centrifuged at 3,000 rpm for 15 minutes, and the supernatants were isolated to obtain plasma samples. An acetonitrile solution containing an internal standard with a volume of 4 times as the plasma sample volume was added to precipitate the protein. After centrifugation, the supernatant was collected and an equal volume of water was added. After centrifugation, the supernatant was collected and injected to quantitatively analyze the blood drug concentration by LC-MS/MS analysis method, and the pharmacokinetic parameters were calculated, e.g., peak concentration, peak time, clearance, half-life, area under the drug concentration-time curve, bioavailability, etc.

[2] = tested on: HT-29 cell subcutaneous xenograft tumor; test: In vivo pharmacodynamics study on HT-29 cell subcutaneous xenograft tumor model; design: species or system BALB/c nude mouse; conditions: QD
Protocol: Biological Test Method 3: In Vivo Pharmacodynamics Study on HT-29 Cell Subcutaneous Xenograft Tumor Model in BALB/c Nude Mouse
Human colon cancer HT-29 cells (ATCC-HTB-38) were cultured in monolayer in vitro, with McCoy's 5a medium (Gibco, 1835937) supplemented with 10% fetal bovine serum, 100 U/mL penicillin and 100 μg/mL streptomycin, at 37° C. under 5% CO2. The cells were conventionally digested with trypsin-EDTA and passaged twice a week. When the cell saturation was 80%-90%, the cells were collected, counted and inoculated. 0.1 mL (5×10^6) of HT-29 cells was subcutaneously inoculated into the right back of each nude mouse. […] The diameter of the tumor was measured twice a week with a vernier caliper. The tumor volume is calculated by the formula: V=0.5a×b^2, wherein a and b represent the length and width respectively. The antitumor activity of the compounds was evaluated by TGI (%), which reflects the tumor growth inhibition rate. Calculation of TGI (%): TGI (%)=[(1−(average tumor volume at the end of administration in a treatment group−average tumor volume at the start of treatment in this treatment group))/(average tumor volume at the end of treatment in the solvent control group−average tumor volume at the start of treatment in the solvent control group)]×100%.

activated MEK1 = molecular target: T1, activated MEK1 (Homo sapiens, UniProt Q02750); test: MEK Lance Ultra experiment; assay type: biochemical; conditions: 0.07 nM activated MEK1, 2 nM non-activated ERK, 50 μM ATP; read-out: MEK potency IC50
T1 construct: purchased Millipore 14-429
T1 sequence (Q02750 whole entry): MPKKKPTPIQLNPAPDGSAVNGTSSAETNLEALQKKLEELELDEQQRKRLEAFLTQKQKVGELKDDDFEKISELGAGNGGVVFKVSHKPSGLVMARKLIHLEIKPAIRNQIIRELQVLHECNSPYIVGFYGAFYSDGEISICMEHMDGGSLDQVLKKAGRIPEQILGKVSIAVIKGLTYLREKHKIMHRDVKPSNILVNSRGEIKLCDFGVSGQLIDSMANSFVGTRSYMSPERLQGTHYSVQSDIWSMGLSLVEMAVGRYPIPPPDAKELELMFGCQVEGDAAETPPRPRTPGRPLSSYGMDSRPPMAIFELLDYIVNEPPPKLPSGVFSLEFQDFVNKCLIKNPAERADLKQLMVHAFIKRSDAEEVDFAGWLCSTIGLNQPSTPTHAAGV
Protocol: Biological Test Method 1: MEK Lance Ultra Experiment Compounds were serially diluted three-fold to 10 concentrations, two duplicates were set. Final test concentrations of the compounds ranged from 10 μM to 0.51 nM. 0.07 nM activated MEK1 (Millipore #14-429) and 2 nM non-activated ERK (Millipore #14-515) were mixed with the compounds or DMSO, the mixture was incubated at 23° C. for 30 minutes. Then 50 nM ULight labeled MBP (PerkinElmer #TRF0109-M) and 50 μM ATP (Invitrogen #PV3227) were added to initiate the reaction, and the mixture was incubated at 23° C. for 90 minutes. After the reaction was stopped by adding EDTA at a final concentration of 15 mM, 2 nM Eu-labeled anti-phosphorylated antibody (PerkinElmer #TRF0201-M) was added and incubated for 1 hour. The fluorescence signal data (excitation band: 320 nm; emission band: 665 nM/615 nM) was determined by an Envision microplate reader (PerkinElmer). XLfit5 software was used for data analysis and mapping.

A375 cells = test: Cell viability experiment (Cell Titer-Glo), A375; assay type: cell-based; conditions: Homo sapiens, A-375, 72 h
Protocol: (§1) Biological Test Method 2: Cell Viability Experiment
(§2) HT29 and A375 cells were plated in a 96-well cell culture plate at a density of 40,000 cells/well and 20,000 cells/well respectively, and the cells were cultured overnight. The compounds were serially diluted in a gradient of 1:3, the dilutions were added to the cell culture medium, and incubated with the cells in a 37° C. incubator for 3 days. The 96-well cell culture plate was taken from the incubator and equilibrated at room temperature for 30 minutes, then Cell Titer-Glo reagent (Promega Cat #G7573) was added at a ratio of 1:2, and the mixture was mixed thoroughly on a shaker for 2 minutes to promote cell lysis. The cell culture plate was incubated at room temperature for 10 minutes and then read on an Envision microplate reader (PerkinElmer). XLfit5 software was used for data analysis and mapping.

HT29 cells = test: Cell viability experiment (Cell Titer-Glo), HT29; assay type: cell-based, human; conditions: Homo sapiens, HT-29, 72 h
Protocol: as §1, §2

[3] = A375 cells, 3 days incubation, read-out: A375 IC50
[4] = HT29 cells, 3 days incubation, read-out: HT29 IC50
[5] = read-out: A375 IC50, A375 cells, 3 days incubation
[6] = read-out: HT29 IC50, HT29 cells, 3 days incubation

IC50 (activated MEK1) [nM] | IC50 (A375 cells; [3]) [nM] | IC50 (HT29 cells; [4]) [nM] | Compound | further results
66 | 2.99 | 4.05 | Cc1c(Nc2ccc(I)cc2F)c2c(=O)n(C3CC3)c(C)c(-c3cccc(CS(C)(=O)=O)c3)c2oc1=O [WX071] | clearance [1]: 0.912 mL/min/kg; bioavailability [1]: 83%; AUC [1]: 58.2 µM·h; half-life [1]: 317 min; TGI ([2]; 0.5 mpk, 21 days): 91%
27.8 | 1.48 | 6.39 | CC(=O)Nc1cccc(-c2c(C)n(C3CC3)c(=O)c3c(Nc4ccc(I)cc4F)c(C)c(=O)oc23)c1 [WX034] | clearance [1]: 1.84 mL/min/kg; bioavailability [1]: 68.7%; AUC [1]: 30.5 µM·h; half-life [1]: 325 min; TGI ([2]; 3 mpk, 21 days): 90.6%
77.3 | 4.58 | 7.44 | Cc1c(Nc2ccc(I)cc2F)c2c(=O)n(C3CC3)c(C)c(-c3cccc(NS(C)(=O)=O)c3)c2oc1=O [WX066] | clearance [1]: 1.85 mL/min/kg; bioavailability [1]: 99.2%; AUC [1]: 28.6 µM·h; half-life [1]: 457 min; TGI ([2]; 0.5 mpk, 21 days): 89%
52.9 | 6.04 | 20.3 | Cc1c(Nc2ccc(I)cc2F)c2c(=O)n(C3CC3)c(C)c(-c3cccc(C(N)=O)c3)c2oc1=O [WX112] | 
45.4 | 2.13 | 4.59 | Cc1c(Nc2ccc(I)cc2F)c2c(=O)n(C3CC3)c(C)c(-c3cccc(CNS(C)(=O)=O)c3)c2oc1=O [WX088] | 
61.1 | 0.47 | 1.32 | Cc1c(Nc2ccc(I)cc2F)c2c(=O)n(C3CC3)c(C)c(-c3cccc(NS(=O)(=O)C4CC4)c3)c2oc1=O [WX089] | 
114 | 2.11 | 6.84 | Cc1c(Nc2ccc(I)cc2F)c2c(=O)n(C3CC3)c(C)c(-c3cccc(CS(=O)(=O)CCO)c3)c2oc1=O [WX100] | 
41.6 | 6.63 | 40.3 | CC(=O)NCc1cccc(-c2c(C)n(C3CC3)c(=O)c3c(Nc4ccc(I)cc4F)c(C)c(=O)oc23)c1 [WX069] | 

The next lines start with the compound.

Compound | IC50 (activated MEK1) [nM] | IC50 (A375 cells; [3]) [nM] | IC50 (HT29 cells; [4]) [nM] | further results
Cc1c(NS(C)(=O)=O)cccc1-c1c(C)n(C2CC2)c(=O)c2c(Nc3ccc(I)cc3F)c(C)c(=O)oc12 [WX086] | 29.6 |  |  | clearance [1]: 2.2 mL/min/kg; bioavailability [1]: 76.8%; AUC [1]: 23.4 µM·h; half-life [1]: 420 min; TGI ([2]; 0.5 mpk (0-11 D): 0.35 mpk (12-21 D), 21 days): 83.1%; IC50 (A375 cells; [5]): 0.4 nM; IC50 (HT29 cells; [6]): 0.62 nM
COCCCn1c(C)c(-c2cccc(NC(C)=O)c2)c2oc(=O)c(C)c(Nc3ccc(I)cc3F)c2c1=O [WX062] | 68 | 631 | 745 | 
CC(=O)Nc1cccc(-c2c(C)n(C3CC3)c(=O)c3c(Nc4ccc(I)cc4F)c(C)c(=O)oc23)n1 [WX039] | 52 | 1.61 | 4.27 | 
CC(=O)Nc1cccc(-c2c(C)n(CC(O)CO)c(=O)c3c(Nc4ccc(I)cc4F)c(C)c(=O)oc23)c1 (stereo not shown) [WX058] | 83 | 91.1 | 102 | 
Cc1c(Nc2ccc(I)cc2F)c2c(=O)n(CC(O)CO)c(C)cc2oc1=O (stereo not shown) [WX053] | 92.8 | 3.27 | 9.19 | 
Cc1c(NS(C)(=O)=O)cccc1-c1c(C)n(C2CC2)c(=O)c2c(Nc3ccc(I)cc3F)c(C)c(=O)oc12 (single isomer, unassigned) [WX113] | 5.61 | 0.37 | 0.82 | clearance [1]: 2.92 mL/min/kg; bioavailability [1]: 73.1%; AUC [1]: 17.6 µM·h; half-life [1]: 278 min; TGI ([2]; 0.2 mpk, 25 days (5 days administration, and 2 days break)): 82.8%
Cc1ccccc1-c1c(C)n(C2CC2)c(=O)c2c(Nc3ccc(I)cc3F)c(C)c(=O)oc12 [WX111] | 14.4 | 3.56 | 14.9 | 
CC(=O)Nc1cccc(-c2c(C)n(C3CC3)c(=O)c3c(Nc4ccc(I)cc4F)c(C)c(=O)oc23)c1C [WX096] | 8.73 |  |  | IC50 (A375 cells; [5]): 2.47 nM; IC50 (HT29 cells; [6]): 10.3 nM
COCCCn1c(C)cc2oc(=O)c(C)c(Nc3ccc(I)cc3F)c2c1=O [WX057] | 78 | 24.1 | 72.5 | 
